Earlier results as cited in paper PMC6203792, “An IL13Rα2 peptide exhibits therapeutic activity against metastatic colorectal cancer” (British Journal of Cancer, 2018).

Biological target: IL13Rα2
Settings: read-out: affinity of IL-13/IL13Rα2 molecular recognition

For IL-13: Recombinant human IL-13, the Kd is listed as about 0.5 nM.
